≈ marks a conversion by molar mass, not a printed value.
Tests used:
Format in all cases: cell-based
[1] = test system: S. aureus ATCC 33591 (methicillin-resistant); experiment: broth microdilution MIC assay, S. aureus 33591; settings: Staphylococcus aureus, ATCC33591; S. aureus 33591, methicillin-resistant; read-out: MIC, S. aureus 33591
Procedure, shortened: (§1)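 CLSI broth microdilution in cation-adjusted Mueller-Hinton broth: colonies from Mueller Hinton II agar grown 3-5 h at 37° C, inoculum set by OD600 to 5×10^5 CFU/mL final. Compounds in 2-fold serial dilutions; plates incubated 16-20 hours at 37° C. MIC read visually as lowest concentration without growth.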

S. aureus USA 300 = experiment: broth microdilution MIC assay, S. aureus USA300; settings: Staphylococcus aureus; S. aureus USA300 (MRSA); read-out: MIC, S. aureus USA300
Procedure, shortened: as §1

S. aureus USA 600 = experiment: broth microdilution MIC assay, S. aureus USA600; settings: Staphylococcus aureus; S. aureus USA600 (MRSA); read-out: MIC, S. aureus USA600
Procedure, shortened: as §1

[2] = test system: E. coli ATCC 25922 (wild-type/QC strain); experiment: broth microdilution MIC assay, E. coli 25922; settings: Escherichia coli, ATCC25922; read-out: MIC, E. coli 25922
Procedure, shortened: as §1

[3] = test system: P. aeruginosa ATCC 27853 (wild-type/QC strain); experiment: broth microdilution MIC assay, P. aeruginosa 27853; settings: Pseudomonas aeruginosa, ATCC27853; read-out: MIC, P. aeruginosa 27853
Procedure, shortened: as §1

[4] = test system: P. aeruginosa 35151 (hyper-permeable strain); experiment: broth microdilution MIC assay, P. aeruginosa 35151; settings: Pseudomonas aeruginosa, read-out: MIC, P. aeruginosa 35151
Procedure, shortened: as §1

[5] = test system: P. aeruginosa ΔmexAB-OprM (an efflux pump knockout); experiment: broth microdilution MIC assay, P. aeruginosa ΔmexAB-OprM; settings: Pseudomonas aeruginosa, read-out: MIC, P. aeruginosa ΔmexAB-OprM
Procedure, shortened: as §1

P. aeruginosa Paeβ-17 = experiment: broth microdilution MIC assay, P. aeruginosa Paeβ-17; settings: Pseudomonas aeruginosa, read-out: MIC, P. aeruginosa Paeβ-17
Procedure, shortened: as §1

| Compound | MIC [1] [µg/mL] | MIC (S. aureus USA 300) [µg/mL] | MIC (S. aureus USA 600) [µg/mL] | MIC [2] [µg/mL] | MIC [3] [µg/mL] | MIC [4] [µg/mL] | MIC [5] [µg/mL] | MIC (P. aeruginosa Paeβ-17) [µg/mL] |
| --- | --- | --- | --- | --- | --- | --- | --- | --- |
| C[C@@H](O)[C@H]1C(=O)N2C(C(=O)O)=C(SC3CN([C@H]4C[C@H](N)C4)C3)[C@H](C)[C@H]12 [Example 4, (4R,5S,6S)-3-((1-((1r,3R)-3-aminocyclobutyl)azetidin-3-yl)thio)-6-((R)-1-hydroxyethyl)-4-methyl-7-oxo-1-azabicyclo[3.2.0]hept-2-ene-2-carboxylic acid] | 8 to 32 (≈ 21.8 to 87.1 µM) | 1 to 4 (≈ 2.72 to 10.9 µM) | 1 to 4 (≈ 2.72 to 10.9 µM) | < 1 | 8 to 32 (≈ 21.8 to 87.1 µM) | < 1 | 1 to 4 (≈ 2.72 to 10.9 µM) | > 32 |
| C[C@@H](O)[C@H]1C(=O)N2C(C(=O)O)=C(SC3CN(CC4CCN(C(=N)N)CC4)C3)[C@H](C)[C@H]12 [Example 26, (4R,5S,6S)-3-((1-((1-carbamimidoylpiperidin-4-yl)methyl)azetidin-3-yl)thio)-6-((R)-1-hydroxyethyl)-4-methyl-7-oxo-1-azabicyclo[3.2.0]hept-2-ene-2-carboxylic acid] | 1 to 4 (≈ 2.29 to 9.14 µM) | 1 to 4 (≈ 2.29 to 9.14 µM) | 1 to 4 (≈ 2.29 to 9.14 µM) | < 1 | 1 to 4 (≈ 2.29 to 9.14 µM) | < 1 | < 1 | 8 to 32 (≈ 18.3 to 73.1 µM) |
| C[C@@H](O)[C@H]1C(=O)N2C(C(=O)O)=C(S[C@H]3C[C@H](N[C@H]4CC[C@H](NC(=N)N)CC4)C3)[C@H](C)[C@H]12 [Example 68, (4R,5S,6S)-3-(((1R,3R)-3-(((1R,4R)-4-guanidinocyclohexyl)amino)cyclobutyl)thio)-6-((R)-1-hydroxyethyl)-4-methyl-7-oxo-1-azabicyclo[3.2.0]hept-2-ene-2-carboxylic acid] | 8 to 32 (≈ 17.7 to 70.9 µM) | 1 to 4 (≈ 2.21 to 8.86 µM) | 1 to 4 (≈ 2.21 to 8.86 µM) | < 1 | 8 to 32 (≈ 17.7 to 70.9 µM) | < 1 | 1 to 4 (≈ 2.21 to 8.86 µM) | 8 to 32 (≈ 17.7 to 70.9 µM) |
| C[C@@H](O)[C@H]1C(=O)N2C(C(=O)O)=C(SC3CN([C@H]4C[C@@H](CN)C4)C3)[C@H](C)[C@H]12 [Example 1, (4R,5S,6S)-3-((1-((1s,3S)-3-(aminomethyl)cyclobutyl)azetidin-3-yl)thio)-6-((R)-1-hydroxyethyl)-4-methyl-7-oxo-1-azabicyclo[3.2.0]hept-2-ene-2-carboxylic acid] | 8 to 32 (≈ 21 to 83.9 µM) | 1 to 4 (≈ 2.62 to 10.5 µM) | 1 to 4 (≈ 2.62 to 10.5 µM) | < 1 | 8 to 32 (≈ 21 to 83.9 µM) | < 1 | 1 to 4 (≈ 2.62 to 10.5 µM) | > 32 |
| CNC[C@H]1CC[C@H](CN2CC(SC3=C(C(=O)O)N4C(=O)[C@H]([C@@H](C)O)[C@H]4[C@H]3C)C2)CC1 [Example 47, (4R,5S,6S)-6-((R)-1-hydroxyethyl)-4-methyl-3-((1-(((1r,4R)-4-((methylamino)methyl)cyclohexyl)methyl)azetidin-3-yl)thio)-7-oxo-1-azabicyclo[3.2.0]hept-2-ene-2-carboxylic acid] | 1 to 4 (≈ 2.29 to 9.14 µM) | 1 to 4 (≈ 2.29 to 9.14 µM) | 1 to 4 (≈ 2.29 to 9.14 µM) | < 1 | 1 to 4 (≈ 2.29 to 9.14 µM) | < 1 | 1 to 4 (≈ 2.29 to 9.14 µM) | 8 to 32 (≈ 18.3 to 73.1 µM) |
| C[C@@H](O)[C@H]1C(=O)N2C(C(=O)O)=C(S[C@H]3C[C@H](N[C@H]4CC[C@@H](N)CC4)C3)[C@H](C)[C@H]12 [Example 60, (4R,5S,6S)-3-(((1R,3R)-3-(((1S,4S)-4-aminocyclohexyl)amino)cyclobutyl)thio)-6-((R)-1-hydroxyethyl)-4-methyl-7-oxo-1-azabicyclo[3.2.0]hept-2-ene-2-carboxylic acid] | 8 to 32 (≈ 19.5 to 78.1 µM) | 1 to 4 (≈ 2.44 to 9.77 µM) | 1 to 4 (≈ 2.44 to 9.77 µM) | < 1 | 8 to 32 (≈ 19.5 to 78.1 µM) | < 1 | 1 to 4 (≈ 2.44 to 9.77 µM) | 8 to 32 (≈ 19.5 to 78.1 µM) |
| C[C@@H](O)[C@H]1C(=O)N2C(C(=O)O)=C(S[C@H]3C[C@H](N[C@@H]4CC[C@H](NC(=N)N)C4)C3)[C@H](C)[C@H]12 [Example 79, (4R,5S,6S)-3-(((1R,3R)-3-(((1R,3S)-3-guanidinocyclopentyl)amino)cyclobutyl)thio)-6-((R)-1-hydroxyethyl)-4-methyl-7-oxo-1-azabicyclo[3.2.0]hept-2-ene-2-carboxylic acid] | 8 to 32 (≈ 18.3 to 73.1 µM) | 1 to 4 (≈ 2.29 to 9.14 µM) | 1 to 4 (≈ 2.29 to 9.14 µM) | < 1 | 1 to 4 (≈ 2.29 to 9.14 µM) | < 1 | 8 to 32 (≈ 18.3 to 73.1 µM) | 1 to 4 (≈ 2.29 to 9.14 µM) |
